Among the test systems are SR leukemia; T-47D breast; IGROV1 ovarian; HCT-116 colon; SF-268 CNS; NCI-H23 lung; OVCAR-4 ovarian; HOP-62 NSCLC; MOLT-4 leukemia; A498 renal; RPMI-8226 leukemia.
Common to all, as to test: NCI tumour cell line growth inhibition, 48 h

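Results reflect a 48-hour exposure of cells in 96-well plates to compound at five concentrations. GI50: concentration for 50% inhibition of growth. The concentration for full growth arrest is given as TGI.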

Turning to `COC(=O)c1cn(CCCCO)nn1`, the TGI in the test with SR leukemia, with T-47D breast, with IGROV1 ovarian, with HCT-116 colon, in the test on SF-268 CNS and in the test with NCI-H23 lung was above 100 µM throughout. In addition, the TGI in the test with OVCAR-4 ovarian, in the test on HOP-62 NSCLC and in the test on MOLT-4 leukemia was above 100 µM in each case.
For `OCCN1CCN(c2nc(Nc3ccc(-c4nc5ccccc5[nH]4)cc3)c3cn[nH]c3n2)CC1`, in the test on NCI-H23 lung, the GI50 is 1.83 µM and the TGI amounted to 3.54 µM. In addition, in the test with A498 renal, the GI50 is 1.92 µM and the TGI was 3.44 µM.
On to `CCC(C)C(NC(=O)c1c2ccccc2nc2ccccc12)C(=O)O` (stereo not given), for which the TGI in the test with SR leukemia, in the test on RPMI-8226 leukemia, in the test on IGROV1 ovarian, in the test with HCT-116 colon, with SF-268 CNS and with NCI-H23 lung was above 100 µM throughout. Moreover, the TGI in the test on OVCAR-4 ovarian, in the test with HOP-62 NSCLC, in the test on MOLT-4 leukemia and in the test with A498 renal was above 100 µM throughout.
With `ClCCCC1COc2ccccc2O1` (stereo not given), the TGI in the test on SR leukemia, in the test with IGROV1 ovarian, with HCT-116 colon, with SF-268 CNS, in the test on OVCAR-4 ovarian and with HOP-62 NSCLC was above 100 µM in each case. Also, the TGI with MOLT-4 leukemia is above 100 µM.
Take `N#CC1C(=O)NC2=C(CCOc3c2ccc2ccccc32)C1c1ccc(F)cc1` (stereo not given): the TGI in the test on T-47D breast is 99.5 µM; with IGROV1 ovarian, 37.9 µM; in the test with HCT-116 colon, 27 µM; with SF-268 CNS, 88.8 µM; in the test on NCI-H23 lung, 74 µM; in the test on OVCAR-4 ovarian it was above 100 µM. For the same compound, the TGI with HOP-62 NSCLC is 33.6 µM; in the test with MOLT-4 leukemia, above 100 µM; in the test on A498 renal it was 44.1 µM.
In the case of `COC(=O)C1=C(OC(=O)/C(=C/c2c(F)cccc2F)c2ccccc2)C(C(=O)OC)[C@@]2(O)[C@@H](C(=O)OC)[C@H](C)C[C@@H]1[C@@H]2C(=O)OC` (stereo not given in full), the TGI in the test with T-47D breast, in the test on IGROV1 ovarian, in the test with HCT-116 colon, in the test on SF-268 CNS, in the test with NCI-H23 lung and in the test with OVCAR-4 ovarian was above 100 µM throughout. Further, the TGI with HOP-62 NSCLC and in the test on MOLT-4 leukemia was above 100 µM in each case.
As for `Cc1cccc(Nc2nc(NNC(=O)Cc3ccccc3)nc(NNC(=O)c3ccncc3)n2)c1`, the TGI with SR leukemia, with RPMI-8226 leukemia, with T-47D breast, in the test with IGROV1 ovarian, with HCT-116 colon and in the test with SF-268 CNS was above 10 µM in each case. Moreover, the TGI in the test with NCI-H23 lung, in the test with OVCAR-4 ovarian, with HOP-62 NSCLC and in the test with MOLT-4 leukemia was above 10 µM throughout.
For `CCCCCCCSCC1OC(n2cnc3c(N)ncnc32)C(O)C1O` (stereo not given), the TGI with SR leukemia was 43.4 µM; in the test on RPMI-8226 leukemia, 69 µM; with IGROV1 ovarian, 41.8 µM; with HCT-116 colon, 11.4 µM; in the test with SF-268 CNS, above 100 µM; in the test on NCI-H23 lung, above 100 µM. In addition, the TGI with OVCAR-4 ovarian stood at 93 µM; in the test with MOLT-4 leukemia, 62.4 µM; in the test with A498 renal, 32.4 µM.
Regarding `CCN(CC)CCNc1ccc2ncn3c4c(OC)ccc(=O)c4c(O)c1c23`, the TGI in the test on SR leukemia is above 31.6 µM; in the test on RPMI-8226 leukemia, 17.8 µM; in the test on T-47D breast it was above 100 µM; in the test with IGROV1 ovarian it was above 43.8 µM; with HCT-116 colon, above 44.3 µM; with SF-268 CNS it was above 95.2 µM. Moreover, the TGI in the test on NCI-H23 lung was above 92.9 µM; in the test with OVCAR-4 ovarian, above 100 µM; in the test with HOP-62 NSCLC it was above 100 µM; with MOLT-4 leukemia, above 24.6 µM.
On to `C=CCCCCn1c2ccccc2c2c(C)c3c[n+](C)ccc3c(C)c21`, for which the TGI in the test with SR leukemia was 1.1 µM; in the test with RPMI-8226 leukemia, 1.43 µM; in the test with IGROV1 ovarian it was 1.4 µM; with HCT-116 colon it was 1.25 µM; with SF-268 CNS, 1.56 µM; with OVCAR-4 ovarian, 1.27 µM. Further, the results for the TGI in the test on HOP-62 NSCLC, in the test with MOLT-4 leukemia and in the test on A498 renal were 1.94 µM, 1.28 µM and 4.42 µM, respectively.
In the case of `CCN(CC)CCOCC1CCCN2CCCCC12` (stereo not given), the TGI in the test on RPMI-8226 leukemia, in the test on T-47D breast, in the test on HCT-116 colon, in the test with SF-268 CNS, in the test with NCI-H23 lung and with OVCAR-4 ovarian was above 100 µM throughout. Besides, the TGI with HOP-62 NSCLC and with MOLT-4 leukemia was above 100 µM each time.
For `c1ccc(C2=NN[C@H](c3cn(-c4ccccc4)nc3-c3ccccc3)C2)cc1`, the GI50 in the test on SR leukemia is above 100 µM; with RPMI-8226 leukemia, above 100 µM; with IGROV1 ovarian, 5.57 µM; in the test on SF-268 CNS, 5.98 µM; in the test with NCI-H23 lung, 7.21 µM; with HOP-62 NSCLC it was 2.16 µM. Further, in the test with MOLT-4 leukemia, the GI50 is above 100 µM. Besides, the TGI with SR leukemia is above 100 µM; in the test with RPMI-8226 leukemia, above 100 µM; with IGROV1 ovarian, above 100 µM; in the test with SF-268 CNS, above 100 µM; in the test with NCI-H23 lung, above 100 µM; with HOP-62 NSCLC, 5.58 µM. In addition, the TGI in the test on MOLT-4 leukemia was above 100 µM.
`Oc1c2c(c3c4c1N=CC=4CCN=3)C1(C=C(Br)C(O)C(Br)=C1)CCN2` (stereo not given): the TGI was 7.41 µM with RPMI-8226 leukemia; 2.86 µM in the test on IGROV1 ovarian; 1.9 µM with HCT-116 colon; 5.75 µM in the test on SF-268 CNS; 2.64 µM in the test with NCI-H23 lung; 2.86 µM with OVCAR-4 ovarian. Moreover, the TGI with HOP-62 NSCLC came to 33.4 µM; in the test with A498 renal, 23.4 µM.
For `CCCCCCCCCCCCCCCCNc1ccc2c(c1)OCCOCCOCCOCCO2`, the TGI in the test with SR leukemia is 8.14 µM; with RPMI-8226 leukemia, 4.49 µM; in the test on T-47D breast it was 9.2 µM; in the test on IGROV1 ovarian, 9.41 µM; in the test with HCT-116 colon, 11.3 µM; in the test with SF-268 CNS, 11.9 µM. In addition, the TGI with NCI-H23 lung was 11.5 µM; with OVCAR-4 ovarian it was 17.6 µM; in the test on HOP-62 NSCLC it was 7.28 µM; in the test with MOLT-4 leukemia, 6.19 µM.
